Like-named read-outs stand apart in the source and are kept apart here.
Tested on: HIV-1 (NL4-3 strain)
Assay: Assay for inhibition of HIV replication (MT4-gag-GFP reporter cell line, wild type cell assay, Viking)
Assay type: cell-based
Settings: IP from 4-parameter dose response curve
Description: This assay is a kinetic assay that employs a reporter cell line (MT4-gag-GFP) to quantify the number of new cells infected in each round of replication.
MT4-GFP cells (250,000 cells/ml) were bulk-infected with HIV-1 (NL4-3 strain) at low multiplicity of infection (MOI) in RPMI+10% FBS for 24 hours. Cells were then washed once in RPMI+10% FBS and resuspended in RPMI+0% or 10% or 100% normal human serum (NHS). Test compounds were serial-diluted in DMSO on ECHO. The infected MT4-GFP cells were added to a 384-well poly-D-lysine coated black plate with clear bottom in which the diluted test compounds were placed. The cells were seeded at 8,000 cells per well and the final DMSO concentration was 0.4%. The infected cells (Green GFP cells) were quantified at both 24 and 48 hours post incubation using Acumen eX3. Viral reproductive ratio (R0) was determined using the number of infected cells at 48 hours divided by the number of infected cells at 24 hours. Percent viral growth inhibition was calculated by [1−(R−Rtripledrug)/(RDMSO−Rtripledrug)]*100. Compound potency IP or IC50 was determined by a 4-parameter dose response curve analysis.

[1] = Human immunodeficiency virus 1, NL43, MT4-GFP cells infected with HIV-1 NL4-3, 0% normal human serum, read-out: WILD TYPE CELL ASSAY Viking IP (0% NHS)
[2] = MT4-GFP cells infected with HIV-1 NL4-3, 100% normal human serum, read-out: WILD TYPE CELL ASSAY Viking IP (100% NHS)
[3] = MT4-GFP cells infected with HIV-1 NL4-3, 0% normal human serum, read-out: WILD TYPE CELL ASSAY Viking IP (0% NHS)
[4] = Human immunodeficiency virus 1, NL43, MT4-GFP cells infected with HIV-1 NL4-3, 100% normal human serum, read-out: WILD TYPE CELL ASSAY Viking IP (100% NHS)

| SMILES | IC50 [1] [nM] | IC50 [2] [nM] | IC50 [3] [nM] | IC50 [4] [nM] |
| --- | --- | --- | --- | --- |
| CC1COC2(C1)Cn1cc(-c3nnc(Cc4ccc(F)cc4F)s3)c(=O)c(O)c1C(=O)C2(C)C (single isomer, unassigned) [Compound 24] | 2.9 | 354 |  |  |
| CC1COC2(C1)Cn1cc(C(=O)NCc3cccc(Cl)c3F)c(=O)c(O)c1C(=O)C2(C)C (single isomer, unassigned) [Compound 22] |  | 1540 | 0.8 |  |
| CC1COC2(C1)Cn1cc(C(=O)NCc3ccc(F)cc3F)c(=O)c(O)c1C(=O)C2(C)C (stereo not drawn) [Compound 18] |  | 855 | 2.7 |  |
| CC1COC2(C1)Cn1cc(-c3nnc(Cc4ccc(F)cc4F)s3)c(=O)c(O)c1C(=O)C2(C)C (single isomer, unassigned) [Compound 25] |  | 1120 | 3.8 |  |
| CC1COC2(C1)Cn1cc(C(=O)NCc3cccc(Cl)c3F)c(=O)c(O)c1C(=O)C2(C)C (single isomer, unassigned) [Compound 23] |  | 717 | 1 |  |
| CC1(C)C(=O)c2c(O)c(=O)c(C(=O)NCc3ccc(F)c(Cl)c3F)cn2CC12CCCO2 (stereo not drawn) [Compound 9] | 1.7 |  |  | 6670 |
| CC1(C)C(=O)c2c(O)c(=O)c(C(=O)NCc3ccc(F)cc3)cn2CC12CCCO2 (stereo not drawn) [Compound 11] | 7.8 |  |  | 4920 |
| CC1(C)C(=O)c2c(O)c(=O)c(C(=O)NCc3cccc(Cl)c3F)cn2CC12CCCO2 (single isomer, unassigned) [Compound 6] | 1.8 |  |  | 581 |
| CC1(C)C(=O)c2c(O)c(=O)c(C(=O)NCc3cccc(Cl)c3F)cn2CC12CCCO2 (stereo not drawn) [Compound 7] | 1.8 |  |  | > 8000 |
| CC1n2cc(C(=O)NCc3ccc(F)cc3F)c(=O)c(O)c2C(=O)C(C)(C)C12CCCO2 (stereo not drawn) [Compound 15] | 2.4 |  |  | 149 |
| CC1COC2(C1)Cn1cc(C(=O)NCc3ccc(F)cc3F)c(=O)c(O)c1C(=O)C2(C)C (stereo not drawn) [Compound 16] | 3.1 | 634 |  |  |
| CC1n2cc(C(=O)NCc3ccc(F)cc3F)c(=O)c(O)c2C(=O)C(C)(C)C12CCCO2 (single isomer, unassigned) [Compound 14] | 2 |  |  | 3300 |
| CC1COC2(C1)Cn1cc(C(=O)NCc3ccc(F)cc3F)c(=O)c(O)c1C(=O)C2(C)C (stereo not drawn) [Compound 19] |  | 453 | 2.6 |  |
| CC1(C)C(=O)c2c(O)c(=O)c(C(=O)NCc3ccc(F)cc3F)cn2CC12CCCCO2 (stereo not drawn) [Compound 3] |  | 2540 | 4.2 |  |
| CC1COC2(C1)Cn1cc(C(=O)NCc3cccc(Cl)c3F)c(=O)c(O)c1C(=O)C2(C)C (single isomer, unassigned) [Compound 20] |  | 1160 | 2 |  |
| CC1(C)C(=O)c2c(O)c(=O)c(C(=O)NCc3ccc(F)cc3F)cn2CC12CCCO2 (single isomer, unassigned) [Compound 2] |  | 2300 | 1.2 |  |
| CC1(C)C(=O)c2c(O)c(=O)c(-c3nnc(Cc4ccc(F)cc4F)s3)cn2CC12CCCO2 (stereo not drawn) [Compound 13] |  | 585 | 5.4 |  |
| CC1(C)C(=O)c2c(O)c(=O)c(C(=O)NCc3ccc(F)cc3)cn2CC12CCCO2 (single isomer, unassigned) [Compound 10] | 7 |  |  | 425 |
| CC1(C)C(=O)c2c(O)c(=O)c(C(=O)NCc3ccc(F)cc3F)cn2CC12CCCO2 (single isomer, unassigned) [Compound 1] |  | 175 | 0.9 |  |
| CC1(C)C(=O)c2c(O)c(=O)c(-c3nnc(Cc4ccc(F)cc4F)s3)cn2CC12CCCO2 (stereo not drawn) [Compound 12] |  | > 8000 | 5 |  |
| CC1COC2(C1)Cn1cc(C(=O)NCc3cccc(Cl)c3F)c(=O)c(O)c1C(=O)C2(C)C (single isomer, unassigned) [Compound 21] |  | 226 | 1.3 |  |
| CC1COC2(C1)Cn1cc(C(=O)NCc3ccc(F)cc3F)c(=O)c(O)c1C(=O)C2(C)C (stereo not drawn) [Compound 17] |  | 307 | 3.1 |  |
| C/C=C1\C(=O)c2c(O)c(=O)c(C(=O)NCc3ccc(F)cc3F)cn2CC12CCOCC2 [Compound 5] |  | 592 | 3.9 |  |
| CC1(C)C(=O)c2c(O)c(=O)c(C(=O)NCc3ccc(F)c(Cl)c3F)cn2CC12CCCO2 (single isomer, unassigned) [Compound 8] | 1.7 |  |  | 585 |

Source: US10544155B2, “Spirocyclic quinolizine derivatives useful as HIV integrase inhibitors” (MERCK SHARP & DOHME CORP., priority 2015, dated 2020)
